The target of assay [1] is T1, Δ382C (DDase-Δ382C) (Gluconobacter oxydans, UniProt A0A0M5MSC0, E858S).
T1 construct: gene HKD20_12845; C-terminal truncation Met1-Ser902 (domains N1, N2, HLH, A); N-terminal His6 tag (MNHKVHHHHHHIEGRHMEL) kept; E. coli BL21-CodonPlus(DE3)-RIL; 921 residues with tag; dimer 195,604 Da
Description: glycosynthase reaction, isomaltotetraose formation by HPAEC-PAD. It counts as biochemical. The following applies: 12.5 mM donor, 50 mM isomaltotriose acceptor, 130 mM sodium acetate pH 4.2, 35 °C.

The target of assay [2] is T2, Δ382C (DDase-Δ382C) (Gluconobacter oxydans, UniProt A0A0M5MSC0, E858A).
T2 construct: gene HKD20_12845; C-terminal truncation Met1-Ser902 (domains N1, N2, HLH, A); N-terminal His6 tag (MNHKVHHHHHHIEGRHMEL) kept; E. coli BL21-CodonPlus(DE3)-RIL; 921 residues with tag; dimer 195,604 Da
Described as above. It counts as biochemical. Particulars: 12.5 mM donor, 50 mM isomaltotriose acceptor, 130 mM sodium acetate pH 4.2, 35 °C.

The values that follow come from publication PMC12446779, “Structural basis of transglucosylation in dextran dextrinase, a homolog of anomer-inverting GH15 glucoside hydrolases” (The Journal of Biological Chemistry, 2025).

Molecules are shown by their SMILES.

T2 sequence (A0A0M5MSC0 entry or part of it E858A): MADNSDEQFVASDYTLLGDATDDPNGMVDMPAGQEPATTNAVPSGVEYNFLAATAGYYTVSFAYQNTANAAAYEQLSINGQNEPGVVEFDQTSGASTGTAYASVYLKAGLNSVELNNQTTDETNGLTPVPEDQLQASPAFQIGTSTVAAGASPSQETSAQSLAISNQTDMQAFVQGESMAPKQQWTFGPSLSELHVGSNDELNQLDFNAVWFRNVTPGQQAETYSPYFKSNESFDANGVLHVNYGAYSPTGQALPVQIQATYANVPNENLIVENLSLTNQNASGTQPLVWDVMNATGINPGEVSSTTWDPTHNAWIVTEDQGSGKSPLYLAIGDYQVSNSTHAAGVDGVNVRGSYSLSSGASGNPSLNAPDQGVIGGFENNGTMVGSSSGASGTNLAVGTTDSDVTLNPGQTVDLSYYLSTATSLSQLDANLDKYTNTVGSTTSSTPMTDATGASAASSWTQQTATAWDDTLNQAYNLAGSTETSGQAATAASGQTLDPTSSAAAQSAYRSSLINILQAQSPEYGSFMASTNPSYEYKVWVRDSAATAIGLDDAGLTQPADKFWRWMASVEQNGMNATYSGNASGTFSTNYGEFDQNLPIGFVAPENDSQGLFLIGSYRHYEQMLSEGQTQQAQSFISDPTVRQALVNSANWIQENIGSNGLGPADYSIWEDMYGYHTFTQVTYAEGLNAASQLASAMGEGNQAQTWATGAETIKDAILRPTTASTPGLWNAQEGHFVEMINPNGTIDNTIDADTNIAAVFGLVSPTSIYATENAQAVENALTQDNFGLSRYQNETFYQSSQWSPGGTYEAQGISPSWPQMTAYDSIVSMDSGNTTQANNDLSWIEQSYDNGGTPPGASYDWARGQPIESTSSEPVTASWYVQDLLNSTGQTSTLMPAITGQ
T1 sequence (A0A0M5MSC0 entry or part of it E858S): as the sequence (A0A0M5MSC0 entry or part of it E858A) above, with A858S counted along it

For `OC[C@H]1O[C@@H](F)[C@H](O)[C@@H](O)[C@@H]1O` [β-GF, β-D-glucosyl fluoride], the “glycosynthase reaction, isomaltotetraose formation by HPAEC-PAD” value in assay [1] was “isomaltotetraose (IG4) was produced from β-D-glucosyl fluoride (β-GF) and IG3 by E858A and E858S”; in assay [2] it was “isomaltotetraose (IG4) was produced from β-D-glucosyl fluoride (β-GF) and IG3 by E858A and E858S”.
